Data as given in patent US20220289732A1, “HETEROCYCLIC WDR5 INHIBITORS AS ANTI-CANCER COMPOUNDS” (NOVARTIS AG, priority 2019, published 2022).

Experiments:
WDR5 = WDR5 (Homo sapiens, UniProt P61964); assay: WDR5 HTRF binding assay; details: read-out: (a) WDR5 HTRF Pep Val v.1[Inhibitor/IC50]Qualified AC50
Method in brief: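 In this HTRF displacement format, biotinylated MLL1 WIN peptide (3762-3773, 20 nM) binds WDR5 (6 nM) in 25 mM Hepes pH 7.5 with 100 mM NaCl, 2 mM DTT and 0.1% BSA for 20 min at rt. Detection used streptavidin-APC/anti-His-Eu for 1 hr. IC50 came from dose-response fits of normalized signal; 15 nM biotin-PEG-His peptide served as counter assay.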

[1] = target: wild type MLL1 four-member complex (MLL1-4C) (Homo sapiens, UniProt P61964); assay: MLL1 LC-MS assay (SAH production); type: biochemical; details: read-out: (b) MLL LCMS Peptide Val.v.1 Qualified AC50
Method in brief: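 SAH formation, measured by LC-MS/MS after a TFA quench containing d4-SAH, was normalised to no-compound and no-enzyme controls and fitted to a dose-response curve for IC50. Reactions ran 120 min at rt (pH 8.0 Tris buffer) with final 30 nM MLL1 four-member complex, 2.5 μM SAM and 10 μM biotinylated H3[1-21] peptide, after a 20-min enzyme/SAM-compound preincubation.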

MV4-11 cells = assay: MV4-11 6-day cell growth CTG (CellTiter-Glo) assay; type: cell-based; details: Homo sapiens, MV4-11, 144 h, 6 days, read-out: (c) MLL/WDR5 cell proliferation assay//MLL/WDR5 proliferation MV4:11 Qualified AC50
Method in brief: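 IC50 comes from a dose-response fit of % inhibition relative to DMSO controls, with viable cells measured by CellTiter-Glo luminescence. Compounds were tested over 12 points (1:3, starting at 50 μM final) on MV4-11 cells plated at 300/well and grown 6 days.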

IC50 (WDR5) [nM] | AC50 [1] [nM] | SMILES | AC50 (MV4-11 cells) [nM]
< 10 | 10 to 1000 | CCOc1cc([C@H](C)N2CCc3c(cc(CCN(C)CC)cc3-c3ccc(F)nc3C)C2=O)ncc1C#N [Example 111, (S)-4-ethoxy-6-(1-(7-(2-(ethyl(methyl)amino)ethyl)-5-(6-fluoro-2-methylpyridin-3-yl)-1-oxo-3,4-dihydroisoquinolin-2(1H)-yl)ethyl)nicotinonitrile] | 10 to 1000
< 10 | 10 to 1000 | CCOc1cc([C@H](C)N2CCc3c(cc(CCN(C)CC)cc3-c3cc(C)cnc3C)C2=O)ncc1C#N [Example 114, (S)-6-(1-(5-(2,5-dimethylpyridin-3-yl)-7-(2-(ethyl(methyl)amino)ethyl)-1-oxo-3,4-dihydroisoquinolin-2(1H)-yl)ethyl)-4-ethoxynicotinonitrile] | 10 to 1000
< 10 | 10 to 1000 | CCOc1cc([C@H](C)N2CCc3c(cc(CCN(C)CC)cc3-c3c[nH]nc3C)C2=O)ncc1C#N [Example 116, (S)-4-ethoxy-6-(1-(7-(2-(ethyl(methyl)amino)ethyl)-5-(3-methyl-1H-pyrazol-4-yl)-1-oxo-3,4-dihydroisoquinolin-2(1H)-yl)ethyl)nicotinonitrile] | 10 to 1000
< 10 | 10 to 1000 | CCOc1cc([C@H](C)N2CCc3c(cc(CCN(C)CC)cc3-c3ccnc(F)c3C)C2=O)ncc1C#N [Example 117, (S)-4-ethoxy-6-(1-(7-(2-(ethyl(methyl)amino)ethyl)-5-(2-fluoro-3-methylpyridin-4-yl)-1-oxo-3,4-dihydroisoquinolin-2(1H)-yl)ethyl)nicotinonitrile] | 10 to 1000
< 10 | 10 to 1000 | CCOc1cc([C@H](C)N2CCc3c(cc(CCN(C)CC)cc3-c3cc(C)cnc3Cl)C2=O)ncc1C#N [Example 118, (S)-6-(1-(5-(2-chloro-5-methylpyridin-3-yl)-7-(2-(ethyl(methyl)amino)ethyl)-1-oxo-3,4-dihydroisoquinolin-2(1H)-yl)ethyl)-4-ethoxynicotinonitrile] | 10 to 1000
< 10 | 10 to 1000 | CCOc1cc([C@H](C)N2CCc3c(cc(CCN(C)CC)cc3-c3ccc(N)nc3C)C2=O)ncc1C#N [Example 122, (S)-6-(1-(5-(6-amino-2-methylpyridin-3-yl)-7-(2-(ethyl(methyl)amino)ethyl)-1-oxo-3,4-dihydroisoquinolin-2(1H)-yl)ethyl)-4-ethoxynicotinonitrile] | 10 to 1000
< 10 | 10 to 1000 | CCOc1cc([C@H](C)N2CCc3c(cc(CCN(C)CC)cc3-c3cc(CO)cnc3Cl)C2=O)ncc1C#N [Example 124, (S)-6-(1-(5-(2-chloro-5-(hydroxymethyl)pyridin-3-yl)-7-(2-(ethyl(methyl)amino)ethyl)-1-oxo-3,4-dihydroisoquinolin-2(1H)-yl)ethyl)-4-ethoxynicotinonitrile] | 10 to 1000
< 10 | 10 to 1000 | CCOc1cc([C@H](C)N2CCc3c(cc(CCN(C)CC)cc3-c3cn(CC)nc3C)C2=O)ncc1C#N [Example 127, (S)-4-ethoxy-6-(1-(7-(2-(ethyl(methyl)amino)ethyl)-5-(1-ethyl-3-methyl-1H-pyrazol-4-yl)-1-oxo-3,4-dihydroisoquinolin-2(1H)-yl)ethyl)nicotinonitrile] | 10 to 1000
< 10 | 10 to 1000 | CCOc1cc([C@H](C)N2CCc3c(cc(CCN(C)CC)cc3-c3cc(C)cnc3C(F)F)C2=O)ncc1C#N [Example 128, (S)-6-(1-(5-(2-(difluoromethyl)-5-methylpyridin-3-yl)-7-(2-(ethyl(methyl)amino)ethyl)-1-oxo-3,4-dihydroisoquinolin-2(1H)-yl)ethyl)-4-ethoxynicotinonitrile] | 10 to 1000

More lines, now with the values behind:

SMILES | IC50 (WDR5) [nM] | AC50 [1] [nM] | AC50 (MV4-11 cells) [nM]
CNc1nccn1Cc1cc(-c2cc(CO)cnc2Cl)c2ccn(Cc3cc4ccccc4[nH]3)c(=O)c2c1 [Example 108, 2-((1H-indol-2-yl)methyl)-5-(2-chloro-5-(hydroxymethyl)pyridin-3-yl)-7-((2-(methylamino)-1H-imidazol-1-yl)methyl)isoquinolin-1(2H)-one] | 10 to 1000 | 10 to 1000 | 10 to 1000
CCOc1cc(CN2CCc3c(cc(CCN(C)CC)cc3-c3cc(C)cnc3Cl)C2=O)ncc1C#N [Example 112, 6-((5-(2-chloro-5-methylpyridin-3-yl)-7-(2-(ethyl(methyl)amino)ethyl)-1-oxo-3,4-dihydroisoquinolin-2(1H)-yl)methyl)-4-ethoxynicotinonitrile] | < 10 | 10 to 1000 | 10 to 1000
CCN(C)CCc1cc2c(c(-c3cn(C)nc3C)c1)CCN([C@@H](C)c1cc(OC)c(F)cn1)C2=O [Example 113, (S)-5-(1,3-dimethyl-1H-pyrazol-4-yl)-7-(2-(ethyl(methyl)amino)ethyl)-2-(1-(5-fluoro-4-methoxypyridin-2-yl)ethyl)-3,4-dihydroisoquinolin-1(2H)-one] | < 10 | 10 to 1000 | 10 to 1000
CCOc1cc([C@H](C)N2CCc3c(cc(CCN(C)CC)cc3-c3cn(CCO)nc3C)C2=O)ncc1C#N [Example 115, (S)-4-ethoxy-6-(1-(7-(2-(ethyl(methyl)amino)ethyl)-5-(1-(2-hydroxyethyl)-3-methyl-1H-pyrazol-4-yl)-1-oxo-3,4-dihydroisoquinolin-2(1H)-yl)ethyl)nicotinonitrile] | < 10 | 10 to 1000 | 10 to 1000
CCOc1cc([C@H](C)N2CCc3c(cc(CCN(C)CC)cc3-c3cccnc3C(F)F)C2=O)ncc1C#N [Example 119, (S)-6-(1-(5-(2-(difluoromethyl)pyridin-3-yl)-7-(2-(ethyl(methyl)amino)ethyl)-1-oxo-3,4-dihydroisoquinolin-2(1H)-yl)ethyl)-4-ethoxynicotinonitrile] | < 10 | 10 to 1000 | 10 to 1000
CCOc1cc([C@H](C)N2CCc3c(cc(CCN(C)CC)cc3-c3cc(CO)cnc3Cl)C2=O)ncc1F [Example 120, (S)-5-(2-chloro-5-(hydroxymethyl)pyridin-3-yl)-2-(1-(4-ethoxy-5-fluoropyridin-2-yl)ethyl)-7-(2-(ethyl(methyl)amino)ethyl)-3,4-dihydroisoquinolin-1(2H)-one] | < 10 | 10 to 1000 | 10 to 1000
CCOc1cc([C@H](C)N2CCc3c(cc(CCN(C)CC)cc3-c3cn(C)nc3C)C2=O)ncc1Cl [Example 121, (S)-2-(1-(5-chloro-4-ethoxypyridin-2-yl)ethyl)-5-(1,3-dimethyl-1H-pyrazol-4-yl)-7-(2-(ethyl(methyl)amino)ethyl)-3,4-dihydroisoquinolin-1(2H)-one] | < 10 | 10 to 1000 | 10 to 1000
CCN(C)CCc1cc2c(c(-c3cn(C)nc3C)c1)CCN([C@@H](C)c1cnc(F)c(OC)c1)C2=O [Example 123, (S)-5-(1,3-dimethyl-1H-pyrazol-4-yl)-7-(2-(ethyl(methyl)amino)ethyl)-2-(1-(6-fluoro-5-methoxypyridin-3-yl)ethyl)-3,4-dihydroisoquinolin-1(2H)-one] | < 10 | 10 to 1000 | 10 to 1000
CCOc1cc([C@H](C)N2CCc3c(cc(CCN(C)CC)cc3-c3cn(C)c(=O)c(C)c3C)C2=O)ncc1C#N [Example 125, (S)-4-ethoxy-6-(1-(7-(2-(ethyl(methyl)amino)ethyl)-1-oxo-5-(1,4,5-trimethyl-6-oxo-1,6-dihydropyridin-3-yl)-3,4-dihydroisoquinolin-2(1H)-yl)ethyl)nicotinonitrile] | < 10 | 10 to 1000 | 10 to 1000
CCOc1cc([C@H](C)N2CCc3c(cc(CCN(C)CC)cc3-c3cn(C)nc3C(F)F)C2=O)ncc1C#N [Example 126, (S)-6-(1-(5-(3-(difluoromethyl)-1-methyl-1H-pyrazol-4-yl)-7-(2-(ethyl(methyl)amino)ethyl)-1-oxo-3,4-dihydroisoquinolin-2(1H)-yl)ethyl)-4-ethoxynicotinonitrile] | < 10 | 10 to 1000 | 10 to 1000
CCOc1cc(CN2CCc3c(cc(CCN(C)CC)cc3-c3cn(C)nc3C)C2=O)ncc1C#N [Example 129, 6-((5-(1,3-dimethyl-1H-pyrazol-4-yl)-7-(2-(ethyl(methyl)amino)ethyl)-1-oxo-3,4-dihydroisoquinolin-2(1H)-yl)methyl)-4-ethoxynicotinonitrile] | < 10 | 10 to 1000 | 10 to 1000
CCOc1cc(CN2CCc3c(cc(CCN(C)CC)cc3-c3ccc(F)nc3C)C2=O)ncc1C#N [Example 130, 4-ethoxy-6-((7-(2-(ethyl(methyl)amino)ethyl)-5-(6-fluoro-2-methylpyridin-3-yl)-1-oxo-3,4-dihydroisoquinolin-2(1H)-yl)methyl)nicotinonitrile] | < 10 | 10 to 1000 | 10 to 1000
